Source: US20190233884A1 (University of Southern California, priority 2016, published 2019)

Test system: patients with refractory metastatic colorectal cancer (mCRC)
Experiment: PFS, OS and disease control in the control cohort of refractory mCRC patients receiving regorafenib (n=52, Italy), by baseline characteristics and SNP genotype
Format: in vivo, human
Details: control cohort
Protocol: All patients underwent the treatment in salvage-line setting.
(§1) Patients in the control group received 160 mg regorafenib (Bayer, Leverkusen, Germany) once daily from day 1 to 21 every 4 weeks. Doses were adjusted based on haematological and non-haematological adverse events at the treating physician's discretion in accordance with the manufacturer's recommendations. The analyses were approved by the University of Southern California (USC) Institutional Review Board of Medical Sciences and conducted at the USC/Norris Comprehensive Cancer Center in accordance with the Declaration of Helsinki and Good Clinical Practice Guidelines.
(§2) Genomic DNA was extracted from peripheral whole blood in patients of all cohorts using the QIAmp Kit (Qiagen, Valencia, Calif., USA) according to the manufacturer's protocol (www.qiagen.com). The candidate SNPs were genotyped using PCR-based direct DNA sequence analysis by ABI 3100A Capillary Genetic Analyzer and Sequencing Scanner v1.0 (Applied Biosystems). Amplification of extracted DNA was carried out using both forward and reverse primers for each gene polymorphism as shown in Table 1. […] The investigators analyzing SNPs were blinded to the clinical data of the study patients.
The primary endpoint in this study was progression-free survival (PFS), and the secondary endpoints were overall survival (OS) and disease control rate (DCR). PFS was calculated from the date of starting treatment to the first observation of disease progression or death from any cause. If a patient had no disease progression or death, PFS was censored at the date of last follow up. OS was calculated from the date of starting treatment until the date of death from any cause or the date of the last follow-up, at which point OS was censored. The disease control rate (DCR) was defined as the proportion of patients who achieved a stable disease (SD) or […] according to RECISTv1.1. Chi-square test was used to examine the difference in baseline patient characteristics among the three cohorts. Allelic distribution of all SNPs by ethnicity for deviation from Hardy-Weinberg equilibrium and the allelic frequencies of SNPs were tested using the Chi-square tests with one degree of freedom. The associations between candidate SNPs and disease control, and toxicities were examined using contingency tables and Fisher's exact test. The associations of SNPs with PFS and OS were analysed using Kaplan-Meier curves and the log-rank test. Because the true mode of inheritance of candidate SNPs was not established yet, a codominant or dominant genetic model if appropriate was considered.
All patients underwent the treatment in salvage-line setting. […] In all patients, adverse events were graded according to the Common Terminology Criteria for Adverse Events, version 4.0.
as §1, with “events at treating physician's” for “events at the treating physician's”
as §2, with “tested” for “genotyped”, “Biosystems).” for “Biosystems). Amplification of extracted DNA was carried out using both forward and reverse primers for each gene polymorphism as shown in Table 1.”, “data.” for “data of the study patients.”
The primary endpoint in this study was progression-free survival (PFS), and the secondary endpoints were overall survival (OS) and disease control rate (DCR). […]

[1] = Sex Female vs Male (Ref.), univariate
[2] = Tumor site Left vs Right (Ref.), univariate
[3] = XRCC3 rs861539 A/A vs G/G (Ref.), multivariable
[4] = XRCC3 rs861539 A/A vs G/G (Ref.), univariate
[5] = XRCC3 rs861539 Any A vs G/G (Ref.), multivariable
[6] = XRCC3 rs861539 Any A vs G/G (Ref.), univariate
[7] = XRCC3 rs861539 G/A vs G/G (Ref.), multivariable
[8] = XRCC3 rs861539 G/A vs G/G (Ref.), univariate
[9] = MATE1 rs2289669 G/A and A/A combined
[10] = MATE1 rs2289669 G/A and A/A combined vs G/G

Q: For `CNC(=O)c1cc(Oc2ccc(NC(=O)Nc3ccc(Cl)c(C(F)(F)F)c3)c(F)c2)ccn1` [regorafenib], which “Median OS” value (Sex Female) is on record?
A: 5.5 months

Q: And the “Median PFS” value (Sex Female)?
A: 2.0 months

Q: What about the “HR OS” value [1] of the same compound?
A: 1.18

Q: And the “HR PFS” value [1]?
A: 1.02

Q: What about the “Median OS” value (Sex Male) of the same compound?
A: 5.4 months

Q: What about the “Median PFS” value (Sex Male) of the same compound?
A: 1.8 months

Q: What about the “Median OS” value (Tumor site Left) of the same compound?
A: 7.2 months

Q: What about the “Median PFS” value (Tumor site Left) of the same compound?
A: 2.2 months

Q: And the “HR OS” value [2]?
A: 0.82

Q: What about the “HR PFS” value [2] of the same compound?
A: 0.80

Q: What about the “Median OS” value (Tumor site Right) of the same compound?
A: 3.9 months

Q: And the “Median PFS” value (Tumor site Right)?
A: 1.8 months

Q: What about the “Disease Control CR/PR/SD, patients n (%)” value (XRCC3 rs861539 A/A) of the same compound?
A: 3 (43%)

Q: What about the “Median OS (95% CI)” value (XRCC3 rs861539 A/A) of the same compound?
A: 5.4 (2.3, 9.1) months

Q: What about the “Median PFS (95% CI)” value (XRCC3 rs861539 A/A) of the same compound?
A: 2.7 (1.7, 4.3) months

Q: What about the “PD, patients n (%)” value (XRCC3 rs861539 A/A) of the same compound?
A: 4 (57%)

Q: What about the “HR OS (95% CI)” value [3] of the same compound?
A: 0.54 (0.21, 1.40)

Q: And the “HR PFS (95% CI)” value [3]?
A: 0.62 (0.23, 1.65)

Q: And the “HR OS (95% CI)” value [4]?
A: 0.34 (0.04, 2.95)

Q: What about the “HR PFS (95% CI)” value [4] of the same compound?
A: 0.83 (0.34, 2.06)

Q: What about the “Disease Control CR/PR/SD, patients n (%)” value (XRCC3 rs861539 Any A) of the same compound?
A: 13 (38%)

Q: What about the “Median OS (95% CI)” value (XRCC3 rs861539 Any A) of the same compound?
A: 5.9 (3.8, 8.0) months

Q: What about the “Median PFS (95% CI)” value (XRCC3 rs861539 Any A) of the same compound?
A: 2.0 (1.8, 3.1) months

Q: And the “PD, patients n (%)” value (XRCC3 rs861539 Any A)?
A: 21 (62%)

Q: And the “HR OS (95% CI)” value [5]?
A: 0.71 (0.38, 1.31)

Q: And the “HR PFS (95% CI)” value [5]?
A: 0.85 (0.44, 1.63)

Q: And the “HR OS (95% CI)” value [6]?
A: 0.72 (0.22, 2.39)

Q: What about the “HR PFS (95% CI)” value [6] of the same compound?
A: 0.83 (0.45, 1.53)

Q: What about the “Disease Control CR/PR/SD, patients n (%)” value (XRCC3 rs861539 G/A) of the same compound?
A: 10 (37%)

Q: And the “Median OS (95% CI)” value (XRCC3 rs861539 G/A)?
A: 6.8 (3.6, 8.7) months

Q: What about the “Median PFS (95% CI)” value (XRCC3 rs861539 G/A) of the same compound?
A: 1.9 (1.8, 3.1) months

Q: And the “PD, patients n (%)” value (XRCC3 rs861539 G/A)?
A: 17 (63%)

Q: What about the “HR OS (95% CI)” value [7] of the same compound?
A: 0.76 (0.40, 1.44)

Q: And the “HR PFS (95% CI)” value [7]?
A: 0.92 (0.47, 1.79)

Q: And the “HR OS (95% CI)” value [8]?
A: 0.86 (0.25, 2.96)

Q: And the “HR PFS (95% CI)” value [8]?
A: 0.83 (0.44, 1.56)

Q: And the “Disease Control CR/PR/SD, patients n (%)” value (XRCC3 rs861539 G/G)?
A: 4 (27%)

Q: And the “Median OS (95% CI)” value (XRCC3 rs861539 G/G)?
A: 4.1 (1.7, 6.0) months

Q: And the “Median PFS (95% CI)” value (XRCC3 rs861539 G/G)?
A: 1.7 (1.0, 2.2) months

Q: And the “PD, patients n (%)” value (XRCC3 rs861539 G/G)?
A: 11 (73%)

Q: What about the “Disease Control Rate PD” value (MATE1 rs2289669 A/A) of the same compound?
A: 5 (50%)

Q: What about the “Disease Control Rate SD” value (MATE1 rs2289669 A/A) of the same compound?
A: 3 (50%)

Q: And the “Disease Control Rate SD” value (MATE1 rs2289669 G/A)?
A: 7 (27%)

Q: What about the “PD, patients n (%)” value (MATE1 rs2289669 G/A) of the same compound?
A: 19 (73%)

Q: What about the “Overall Survival Median, months (95% CI)” value [9] of the same compound?
A: 5.3 (3.7, 8.0) months

Q: And the “Progression-free Survival Median, months (95% CI)” value [9]?
A: 1.8 (1.7, 2.8) months

Q: And the “Overall Survival HR (95% CI) multivariate” value [10]?
A: 0.99 (0.52, 1.91)

Q: And the “Overall Survival HR (95% CI) univariate” value [10]?
A: 0.85 (0.50, 1.57)

Q: And the “Progression-free Survival HR (95% CI) multivariate” value [10]?
A: 0.86 (0.43, 1.70)

Q: What about the “Progression-free Survival HR (95% CI) univariate” value [10] of the same compound?
A: 0.65 (0.48, 1.52)

Q: What about the “Disease Control Rate PD” value (MATE1 rs2289669 G/G) of the same compound?
A: 10 (59%)

Q: And the “Disease Control Rate SD” value (MATE1 rs2289669 G/G)?
A: 7 (41%)

Q: What about the “Overall Survival Median, months (95% CI)” value (MATE1 rs2289669 G/G) of the same compound?
A: 5.7 (2.2, 7.8) months

Q: What about the “Progression-free Survival Median, months (95% CI)” value (MATE1 rs2289669 G/G) of the same compound?
A: 2.1 (1.5, 3.1) months

Q: And the “Overall Survival HR (95% CI) univariate” value (OCT2 rs316000)?
A: 0.95 (0.50, 1.83)

Q: And the “Progression-free Survival HR (95% CI) univariate” value (OCT2 rs316000)?
A: 0.95 (0.50, 1.83)

Q: And the “Disease Control Rate PD” value (OCT2 rs316019 A/A)?
A: 1 (100%)

Q: What about the “Disease Control Rate SD” value (OCT2 rs316019 A/A) of the same compound?
A: 0

Q: And the “Disease Control Rate PD” value (OCT2 rs316019 C/A)?
A: 6 (86%)
